We go through 31 compounds from the supplement of paper PMC11616607.

One test deals with OVCAR8. As to the kind of experiment: drug sensitivity score (DSS) from 5-point dose-response viability curve (DSS (area-under-curve based score)); higher = more sensitive (stronger growth inhibition or killing); extreme values may be limits of the assay. The following applies: exposure time: 72 h; concentration range: 5 concentrations over 10,000-fold range. In short, it runs like this: (§1)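 Drug sensitivity scores were calculated in Breeze software for each cell line and drug pair; higher scores indicate more sensitivity. A score of zero indicates no response. The underlying assay used 384-well plates: drugs were placed by an Echo 550 acoustic dispenser at five concentrations spanning a 10,000-fold range, 1,500 ovarian cancer or normal ovarian cells were added per well, and cells were kept 3 days at 37°C, 5% CO2. Viability was then measured with CellTiter-Glo luminescence on a PHERAstar FS.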
Compound `COc1cc(N2CCC(N3CCN(C)CC3)CC2)ccc1Nc1ncnc(Nc2ccccc2S(=O)(=O)C(C)C)n1` [ASP3026] showed a drug sensitivity score of 4.3.

`CNC(=O)c1ccccc1Nc1cc(Nc2ccc(N3CCOCC3)cc2OC)ncc1C(F)(F)F` [VS-4718] showed a drug sensitivity score of 4.4.

The compound `CC(=O)c1c(C)c2cnc(Nc3ccc(N4CCNCC4)cn3)nc2n(C2CCCC2)c1=O` [Palbociclib] came in with a drug sensitivity score of 0.5.

Turning to `CS(=O)(=O)N1CCN(Cc2cc3nc(-c4cccc5[nH]ncc45)nc(N4CCOCC4)c3s2)CC1` [Pictilisib], the drug sensitivity score came out at 8.3.

`CCS(=O)(=O)N1CC(CC#N)(n2cc(-c3ncnc4[nH]ccc34)cn2)C1` [Baricitinib] gave a drug sensitivity score of 0.

In turn, `O=C(Nc1cnn2ccc(N3CCC[C@@H]3c3cc(F)ccc3F)nc12)N1CC[C@H](O)C1` [Larotrectinib] yielded a drug sensitivity score of 0.

As for `CCN1CCN(Cc2ccc(Nc3ncc(F)c(-c4cc(F)c5nc(C)n(C(C)C)c5c4)n3)nc2)CC1` [Abemaciclib], the drug sensitivity score was 0.7.

Compound `O=C(Nc1ccncc1)C(=O)c1cn(Cc2ccc(Cl)cc2)c2ccccc12` [Indibulin] came in with a drug sensitivity score of 6.4.

`CN(C)C[C@@H]1CCn2cc(c3ccccc32)C2=C(C(=O)NC2=O)c2cn(c3ccccc23)CCO1` [Ruboxistaurin] had a drug sensitivity score of 6.6.

Turning to `C[C@H](Nc1ncnc2[nH]cnc12)c1cc2ccc(F)cc2nc1-c1ccccn1` [AMG319], the drug sensitivity score was found to be 0.

On to `CC(C)(C)c1cc(NC(=O)Nc2ccc(Oc3ccnc4[nH]c(=O)cnc34)cc2F)n(-c2ccccc2)n1`, for which the drug sensitivity score stood at 2.

`CCn1cc(-c2ccnc3[nH]c(-c4cccc(CN(C)C)c4)cc23)c(-c2ccc(NC(=O)N(C)C)cc2)n1` registered a drug sensitivity score of 1.9.

The compound `CCCCCCCCc1ccc(CCC(N)(CO)CO)cc1` [Fingolimod] had a drug sensitivity score of 6.8.

Compound `C1=N/C2=N/c3ccc(OCCN4CCCC4)c(c3)COC/C=C/COCc3cccc(c3)C(=C1)N2` [Pacritinib] registered a drug sensitivity score of 7.8.

Compound `Nc1ccccc1NC(=O)c1ccc(CNc2nccc(-c3cccnc3)n2)cc1` [Mocetinostat] showed a drug sensitivity score of 13.

`N#CC1(c2ccc(NC(=O)c3cccnc3NCc3ccncc3)cc2)CCCC1` [Apatinib]: the drug sensitivity score came to 0.

In another test the test system is COV362. The test is described as above. The following applies: exposure time: 72 h; concentration range: 5 concentrations over 10,000-fold range. In short, it runs like this: as §1
The compound `O=C(O)c1ccc2c(c1)nc(Nc1cccc(Cl)c1)c1ccncc12` [Silmitasertib] displayed a drug sensitivity score of 0.9.

As for `CCOc1ccccc1-n1c(C(C)N2CCN(C(=O)COc3ccc(Cl)cc3)CC2)nc2ccccc2c1=O` (configuration not stated) [Erastin], the drug sensitivity score is 1.4.

For `CCNCCS(=O)(=O)NC[C@@]1(c2ccccc2)SC(NC(=O)C(C)(C)C)=NN1C(=O)C(C)(C)C` [Litronesib], the drug sensitivity score came to 1.1.

`CNC(=O)c1cccc(-c2ccc3c(N4CCOC[C@@H]4C)nc(N4CCOC[C@@H]4C)nc3n2)c1` [Vistusertib] registered a drug sensitivity score of 2.8.

Turning to `CC(C)(C)c1cc(NC(=O)Nc2ccc(-c3cn4c(n3)sc3cc(OCCN5CCOCC5)ccc34)cc2)no1` [Quizartinib], the drug sensitivity score came to 0.

Consider `N[C@@H]1CCCN(c2c(/C=C3\SC(=O)NC3=O)cccc2-c2ccccc2)C1` [AZD1208], for which the drug sensitivity score was found to be 0.

Regarding `CCc1c2c(nc3ccc(O)cc13)-c1cc3c(c(=O)n1C2)COC(=O)[C@]3(O)CC` [SN-38], the drug sensitivity score worked out at 16.8.

The compound `Cn1cc(-c2ccc(F)c(C(F)(F)F)c2)nc1C1CCN(c2ncnc3[nH]ncc23)CC1` came in with a drug sensitivity score of 0.

In the case of `C=CC(=O)Nc1cc(Nc2nccc(-c3cn(C)c4ccccc34)n2)c(OC)cc1N(C)CCN(C)C` [Osimertinib], the drug sensitivity score is 2.2.

`COC(=O)c1ccc2c(c1)[nH]c1ncnc(NCCCN3CCCCC3)c12` [UM729] yielded a drug sensitivity score of 0.

As to `Cc1nc(NC(=O)N2CCC[C@H]2C(N)=O)sc1-c1ccnc(C(C)(C)C(F)(F)F)c1` [Alpelisib], the drug sensitivity score was determined as 0.

In turn, `C[C@H]1CNCCCN1S(=O)(=O)c1cccc2cncc(F)c12` [Ripasudil] gave a drug sensitivity score of 0.

In turn, `CC(C)(C)C[C@@H]1N[C@@H](C(=O)N[C@H]2CC[C@H](O)CC2)[C@H](c2cccc(Cl)c2F)[C@]12C(=O)Nc1cc(Cl)ccc12` gave a drug sensitivity score of 1.2.

Turning to `CON(C)C(=O)N1N=C(c2cc(F)ccc2F)S[C@@]1(CCCN)c1ccccc1` [Filanesib], the drug sensitivity score amounted to 1.4.

`CN(C)CC#Cc1ccc(OCCCc2sc(N3CCc4cccc(C(=O)Nc5nc6ccccc6s5)c4C3)nc2C(=O)O)c(F)c1` yielded a drug sensitivity score of 1.6.

Compound `COc1cc(N2CCC(N3CCN(C)CC3)CC2)ccc1Nc1ncnc(Nc2ccccc2S(=O)(=O)C(C)C)n1` [ASP3026] gave a drug sensitivity score of 3.3.

On to `CNC(=O)c1ccccc1Nc1cc(Nc2ccc(N3CCOCC3)cc2OC)ncc1C(F)(F)F` [VS-4718], for which the drug sensitivity score was found to be 4.1.

`CC(=O)c1c(C)c2cnc(Nc3ccc(N4CCNCC4)cn3)nc2n(C2CCCC2)c1=O` [Palbociclib] showed a drug sensitivity score of 1.

`CS(=O)(=O)N1CCN(Cc2cc3nc(-c4cccc5[nH]ncc45)nc(N4CCOCC4)c3s2)CC1` [Pictilisib]: the drug sensitivity score was found to be 5.9.

Compound `CCS(=O)(=O)N1CC(CC#N)(n2cc(-c3ncnc4[nH]ccc34)cn2)C1` [Baricitinib] registered a drug sensitivity score of 0.

`O=C(Nc1cnn2ccc(N3CCC[C@@H]3c3cc(F)ccc3F)nc12)N1CC[C@H](O)C1` [Larotrectinib] gave a drug sensitivity score of 0.

With `CCN1CCN(Cc2ccc(Nc3ncc(F)c(-c4cc(F)c5nc(C)n(C(C)C)c5c4)n3)nc2)CC1` [Abemaciclib], the drug sensitivity score stood at 1.5.

`O=C(Nc1ccncc1)C(=O)c1cn(Cc2ccc(Cl)cc2)c2ccccc12` [Indibulin] had a drug sensitivity score of 1.8.

Turning to `CN(C)C[C@@H]1CCn2cc(c3ccccc32)C2=C(C(=O)NC2=O)c2cn(c3ccccc23)CCO1` [Ruboxistaurin], the drug sensitivity score came out at 2.5.

Compound `C[C@H](Nc1ncnc2[nH]cnc12)c1cc2ccc(F)cc2nc1-c1ccccn1` [AMG319] came in with a drug sensitivity score of 0.

Compound `CC(C)(C)c1cc(NC(=O)Nc2ccc(Oc3ccnc4[nH]c(=O)cnc34)cc2F)n(-c2ccccc2)n1` returned a drug sensitivity score of 0.

The compound `CCn1cc(-c2ccnc3[nH]c(-c4cccc(CN(C)C)c4)cc23)c(-c2ccc(NC(=O)N(C)C)cc2)n1` came in with a drug sensitivity score of 0.2.

For the compound `CCCCCCCCc1ccc(CCC(N)(CO)CO)cc1` [Fingolimod], the drug sensitivity score came to 6.2.

The compound `C1=N/C2=N/c3ccc(OCCN4CCCC4)c(c3)COC/C=C/COCc3cccc(c3)C(=C1)N2` [Pacritinib] came in with a drug sensitivity score of 6.2.

`Nc1ccccc1NC(=O)c1ccc(CNc2nccc(-c3cccnc3)n2)cc1` [Mocetinostat] came in with a drug sensitivity score of 1.1.

With `N#CC1(c2ccc(NC(=O)c3cccnc3NCc3ccncc3)cc2)CCCC1` [Apatinib], the drug sensitivity score is 0.
